According to patent US20260345593A1, “ORAL FORMULATION OF N-PYRIDINYL ACETAMIDE DERIVATIVE FOR TREATING INTERSTITIAL LUNG DISEASE” (AstraZeneca AB, priority 2022, published 2026):
Like-named read-outs stand apart in the source and are kept apart here.

Key:
[1] = Example 1, first clinical study: pharmacokinetics in healthy subjects; assay type: in vivo, human; settings: for half-life / Tmax: in vivo; for half-life: read-out: geometric mean terminal half-life
Experimental: This study is in two parts—part 1 involves testing a single ascending dose, whilst part 2 involves testing multiple ascending doses.
Part 1 comprises a Screening Period of a maximum of 6 weeks. This is followed by a Treatment Period during which subjects are resident at the Clinical Unit from 1 day before investigational medicinal product (IMP) administration (Day −1) until at least 72 hours after IMP administration (Day 4). Subjects receive a single oral dose of AZD5055 or placebo on Day 1. This is followed by a Follow-up Visit within 6±1 day after the IMP dose.
Part 2 comprises a Screening Period of a maximum of 6 weeks. This is followed by a treatment period during which subjects are resident at the Clinical Unit from 1 day before IMP administration (Day −1) until at least 72 hours after the last dose given on Day 16 (Day 19). Subjects are dosed for a total of 15 days and receive a single once daily morning dose of AZD5055 or placebo on Day 1 and on Days 3 through Day 16, with no dosing on Day 2. This is followed up a Follow-up Visit within 6±1 day after the IMP dose, and an additional Follow-up Visit within 29±2 days after the last IMP dose.
For cohorts with QD dosing regimens, the Screening Period is followed by a Treatment Period during which subjects are resident at the Clinical Unit from 1 day before IMP administration (Day −1) until at least 72 hours after the last dose given on Day 16 (Day 19). Subjects are dosed for a total of 15 days, receiving a single QD morning dose of AZD5055 or placebo on Day 1 and on Days 3 through Day 16.
For cohorts with BID dosing regimens, the Screening Period is followed by a Treatment Period during which subjects are resident at the Clinical Unit from 1 day before IMP administration (Day −1) until at least 72 hours after the last dose given on Day 16 (Day 19).
Subjects are dosed for a total of 15 days, receiving a single morning dose of AZD5055 or placebo on Day 1 and Day 16, and repeated BID dosing on Day 3 through Day 15, 12 hours (±30 minutes) apart.
The study was conducted in healthy male and healthy female subjects of non-childbearing potential with suitable veins for cannulation or repeated venipuncture. […] Also, the subjects were aged 18 to 55 years inclusive for men and women in Part 1 and only men in Part 2. For female subjects in Part 2, the age range was 18 to 49 years inclusive.
In Part 1 of the study, 3 dose levels of AZD5055 were investigated in 3 cohorts. Each cohort included 8 subjects. Within each cohort, 6 subjects were randomized to receive AZD5055, and 2 subjects were randomized to receive placebo. In Part 2 of the study, 3 dose levels of AZD5055 were investigated in 3 cohorts. In each cohort, 9 subjects were randomized to receive AZD5055, and 3 subjects were randomized to receive placebo.
Primary PK parameters: Cmax, AUCinf, and AUClast; secondary PK parameters: including but not limited to tmax, AUC (0-12) or AUC (0-24) (the one not being the primary parameter), t1/2λz, MRTinf, CL/F, Vz/F, Rac, TCP, Ae(t1-t2), fe (t1-t2), and CLR.
No formal statistical hypothesis testing was performed. The analyses of safety, tolerability, PK, and PD data was summarized descriptively by treatment/dose/study day separately using appropriate descriptive statistics including tables, listings, and graphs, as appropriate. Preliminary dose proportionality of AZD5055 after single dose (Day 1) in Part 1 and 2 and multiple dose (Day 16) in Part 2 was assessed graphically and was analyzed using the power model approach with the logarithm of PK parameters (AUC and Cmax on Day 1) and (AUC(0-τ) and Cmax on Day 16) as the dependent variable and the logarithm of the dose as the independent variable. For data collected in Part 2, the time dependency of the PK was evaluated by comparing AUC(0-τ) (Day 16) with AUC (Day 1) and accumulation was evaluated by comparing AUC(0-τ) (Day 16) with AUC(0-τ) (Day 1) and Cmax (Day 16) with Cmax (Day 1). […]

healthy participants = test: Example 2: safety in healthy participants; assay type: in vivo, human
Experimental: The study comprises a screening period of maximum 28 days, and five periods during which subjects will participate from Day −1 of Period 1 to 72 hours after the AZD5055 dose in Period 5.
Period 1: On Day 1, the subjects will receive either 5 mg AZD5055 as a 20-minute IV infusion (Treatment A) in an overnight fasted state or AZD5055 20 mg as oral suspension (Treatment B) in an overnight fasted state.
Period 2: On Day 1 (Study Day 4), the subjects will receive 20 mg AZD5055 film-coated tablet (Treatment C) in an overnight fasted state.
Period 3: On Day 1 (Study Day 8) the subjects will receive a standardized high-fat breakfast 30 minutes before 20 mg AZD5055 administered as film-coated tablet (Treatment D).
Period 4: On Study Day 10, three days prior to Day 1, 20 mg rabeprazole will be administered twice daily. On Day 1 (Study Day 13), 20 mg AZD5055 film-coated tablet will be administered together with rabeprazole and rabeprazole dosing will continue twice daily (Treatment E).
Period 5: On Day 1 (Study Day 17) the participants will receive a low-fat breakfast 30 minutes before 20 mg AZD5055 film-coated tablet administered together with 20 mg rabeprazole.
Rabeprazole will continue twice daily, the last dose is on the evening of Study Day 18 (Treatment F).
Safety Variables—Safety endpoints included adverse events (AEs), clinical laboratory assessments (hematology, clinical chemistry, urinalysis, and urinary albumin:creatinine ratios), vital signs and peripheral oxygen saturation (SpO2), standard 12-lead electrocardiogram, (ECG), telemetry, and physical examinations.
All safety data (scheduled and unscheduled) were presented in the data listings. Continuous variables were summarized using descriptive statistics (n, mean, SD, min, median, max) by treatment. Categorical variables were summarized in frequency tables (frequency and proportion) by treatment/dose group. The analysis of the safety variables was based on the safety analysis set.

Cc1cc(-c2nccc3c2ccn3CC(=O)Nc2ccc(-c3cnccn3)cn2)ccn1 [AZD5055, 2-[4-(2-methyl-4-pyridyl)pyrrolo[3,2-c]pyridin-1-yl]-N-(5-pyrazin-2-yl-2-pyridyl)acetamide]
dose proportionality of exposure ([1]; 5 to 40 mg, single and multiple dose): increased approximately proportionally | half-life ([1]; human, po, multiple daily administration): 12.2 to 17.2 h | Tmax ([1]; human, po, multiple daily doses of 5 to 20 mg, read-out: tmax (medians)): 1 to 1.3 h | Tmax ([1]; human, po, observed, oral dose, read-out: tmax (time to Cmax)): 1 h | half-life ([1]; human, po, single administration): 9.7 to 11.4 h | dose excreted ([1]; human, urine, po, percent of dose administered, read-out: dose recovered unchanged in urine): < 2.3% | between-subject variability in Cmax ([1]; low): < 25% | decline of concentrations ([1]; oral): declined in a bi-phasic manner | renal clearance share of total clearance ([1]; oral): small share of AZD5055 total clearance | absorption ([1]; oral suspension, single ascending doses of 7 to 40 mg): rapidly absorbed | accumulation ([1]; repeat daily administration): Little to moderate accumulation | participants with SAE (transaminases increased), possibly related (healthy participants; Period 3 (tablet, high-fat fed)): One | AEs leading to discontinuation, events (healthy participants; after dosing in Period 3): 2 events | participants with AE leading to discontinuation (healthy participants; after dosing in Period 3, transaminases increased and non-cardiac chest pain): Two | participants with at least 1 AE of Grade 1 intensity (healthy participants; in total): 8 participants | participants with at least 1 AE of Grade 2 intensity (healthy participants; in total): 4 participants | AEs Grade 3 or higher (healthy participants; in vivo): No AEs Grade 3 or higher | deaths (healthy participants; in vivo): no deaths | laboratory parameters, vital signs, ECGs, physical examination (healthy participants; in vivo): No clinically relevant trends | AEs possibly related to AZD5055, events (healthy participants; overall): 9 events | any AE, events (healthy participants; overall): 20 events | participants with any AE (healthy participants; overall): 11 participants | participants with any AE possibly related to AZD5055 (healthy participants; overall): Five | tolerability (healthy participants; single oral and IV doses): generally well tolerated
